Measured values from patent US9145436B2 (priority 2010, dated 2015).
Where two headings read alike, the source gives them in different places.

What was measured:
[1] = tested on: TNFa production in J774 cells; experiment: Cytokine production in stimulated J774 cells, TNFa (ELISA); type: cell-based; settings: Normal (LPS 0.1 μg/mL)
Protocol: (§1) Various analogs were compared in vitro to determine key properties. Antibacterial effect was determined in representative Gram negative (E. coli) and positive (S. aureus) organisms using the method of example 16. Effects on lung inflammation were compared using the method of example 32. BALF (Bronchoalveolar Lavage Fluid) TNFa levels are determined by ELISA. In vitro toxicity is determined by growth inhibition of Jurkat lymphocytes in DMEM medium as determined using Alamar Blue reaction. Effects on cytokine production are determined in J774 cells stimulated with either LPS (0.1 μg/mL) or medium from J774 cells stimulated for 24 h with 0.2 μg/mL LPS. Cytokines are determined by ELISA and expressed as % DMSO control at 50 μM inhibitor concentration.

[2] = tested on: IL-10 production in J774 cells; experiment: Cytokine production in stimulated J774 cells, IL-10 (ELISA); type: cell-based; settings: Normal (LPS 0.1 μg/mL)
Protocol: as §1

BALF TNFa = experiment: Airway inflammation by inhaled LPS, BALF TNFa by ELISA; type: in vivo, DBA or Swiss female mice; settings: 30 minutes prior to LPS challenge
Protocol: as §1
Airway inflammation is induced by inhalation of solutions containing bacterial LPS. 10 μg per mouse is provided intranasally in phosphate buffered saline. 90 minutes after challenge, bronchioalveolar lavage fluid is recovered from the lung using PBS (0.5 mL) injected into the lung via the trachea and frozen prior to analysis for cytokines by ELISA. TNFa is the primary cytokine measured. Compound 2 and other test substances are dissolved in 0.02% citric acid in water, and the pH of the resulting solution is set to 6.2. Compounds are administered 30 minutes prior to challenge either as 25 μL solutions for intranasal use, or as 125 μL volumes for p.o. application in 25 g DBA or Swiss female mice. The results of said interventions include reduction of lung and/or plasma cytokines. Example data are recorded in FIG. 13.

Jurkat lymphocytes = experiment: In vitro toxicity: growth inhibition of Jurkat lymphocytes, Alamar Blue; type: cell-based; settings: DMEM medium
Protocol: as §1

[3] = tested on: IL-12 production in J774 cells; experiment: Cytokine production in stimulated J774 cells, IL-12 (ELISA); type: cell-based; settings: Normal (LPS 0.1 μg/mL)
Protocol: as §1

[4] = tested on: GM_CSF production in J774 cells; experiment: Cytokine production in stimulated J774 cells, GM-CSF (ELISA); type: cell-based; settings: Cond. (medium from J774 cells stimulated 24 h with 0.2 μg/mL LPS)
Protocol: as §1

S. aureus = experiment: Antibiotic dilution assay, S. aureus; type: cell-based; settings: liquid medium, OD600, read-out: Bacterial IC 50 (μM) S. Aureus
Protocol: (§2) The antibiotic activity of the compounds was determined via antibiotic dilution assay. After filling 100 μl growth medium into all the wells of a 96 well plate, the compounds were diluted from 1 mM to 0.010 μM. The growth control wells contained growth medium instead of inhibitory agents. The inhibitory control contained Compound 3 (200 μM). Suspensions of E. coli and B. pumilus in growth medium with an approximate OD600 of 0.03-0.04 were added to the diluted compounds, incubated for 6-8 hours on the shaker at 750 rpm and 37° C. until the growth control had reached an OD600 of about 0.6-0.8. The OD600 was then determined on a standard plate reader.
as §1

E. coli = experiment: Antibiotic dilution assay, E. coli; type: cell-based; settings: liquid medium, OD600, read-out: Bacterial IC 50 (μM) E. Coli
Protocol: as §2, §1

Jurkat = experiment: Cytotoxicity of the substances (TC50), Jurkat; type: cell-based; settings: Jurkat cells
HeLa = experiment: Cytotoxicity of the substances (TC50), HeLa; type: cell-based; settings: HeLa cells

SMILES	Cytokine production in J774 cells as % DMSO control, TNFa Normal 50 μM [1]	Cytokine production in J774 cells as % DMSO control, IL-10 Normal 50 μM [2]	BALF TNFa (% Vehicle) 20 μmol/kg i.n. (BALF TNFa)	Jurkat Cell toxicity Normal growth limit (Jurkat lymphocytes)	Cytokine production in J774 cells as % DMSO control, IL-12 Normal 50 μM [3]	Cytokine production in J774 cells as % DMSO control, GM_CSF Cond. 50 μM [4]	IC50 (S. aureus; Staphylococcus aureus)	IC50 (E. coli; Escherichia coli)	IC50 (S. aureus)	IC50 (E. coli)	TC50 Jurkat (Jurkat)	BALF TNFa (% Vehicle) 200 μmol/kg p.o. (BALF TNFa)	TC50 HeLa (HeLa)
CC[C@H]1OC(=O)[C@H](C)C(O)[C@H](C)[C@@H](O[C@@H]2O[C@H](C)CC([N+](C)(C)[O-])[C@H]2O)[C@](C)(O)C[C@@H](C)C[N+](C)([O-])[C@H](C)[C@@H](O)[C@]1(C)O (some centres unmarked) [Compound 5b]	88 % DMSO control	116 % DMSO control	56 % Vehicle	100 µM	67 % DMSO control	81 % DMSO control	1920 µM	1090 µM					
CCCCCCCCC=CCCCCCCCC(=O)OC1C(OC2C(C)C(=O)C(C)C(=O)OC(CC)C(C)(O)C(OC(=O)CCCCCCCC=CCCCCCCCC)C(C)N(C)CC(C)CC2(C)O)OC(C)CC1N(C)C (centres unmarked) [Compound 9b]	89 % DMSO control	123 % DMSO control	112 % Vehicle	100 µM	76 % DMSO control	53 % DMSO control			2500 µM	1950 µM			
CCOC(=O)CC1(C)C(=O)O[C@H](CC)[C@@](C)(O)[C@H](O)[C@@H](C)N(C)C[C@H](C)C[C@]2(C)O[C@@]1(O)[C@H](C)[C@H]2O[C@@H]1O[C@H](C)CC(N(C)C)[C@H]1O (some centres unmarked) [Compound 5, [14-(4-Dimethylamino-3-hydroxy-6-methyl-tetrahydro-pyran-2-yloxy)-5-ethyl-1,6,7-trihydroxy-2,6,8,9,11,13,15-heptamethyl-3-oxo-4,16-dioxa-9-aza-bicyclo[11.2.1]hexadec-2-yl]-acetic acid ethyl ester]	39 % DMSO control	95 % DMSO control	90 % Vehicle	100 µM	7 % DMSO control	114 % DMSO control	2600 µM	980 µM			> 100 µM		
CC[C@H]1OC(=O)[C@H](C)C(=O)[C@H](C)[C@@H](O[C@@H]2O[C@H](C)CC(N(C)C)[C@H]2O)[C@](C)(O)C[C@@H](C)CN(C)[C@H](C)[C@H]2OC(=O)O[C@@]21C (some centres unmarked) [Example 10]	72 % DMSO control	118 % DMSO control	99 % Vehicle	100 µM	40 % DMSO control	14 % DMSO control	1600 µM	1350 µM					
CC[C@H]1OC(=O)[C@H](C)[C@@]2(O)O[C@@](C)(C[C@@H](C)CN[C@H](C)[C@@H](O)[C@]1(C)O)[C@H](O[C@@H]1O[C@H](C)C[C@H](NC)[C@H]1O)[C@H]2C [Compound 14]	93 % DMSO control	95 % DMSO control	62 % Vehicle	100 µM	143 % DMSO control	153 % DMSO control	1950 µM	1320 µM				95 % Vehicle	
CC[C@H]1OC(=O)[C@H](C)[C@@H](O[C@H]2C[C@@](C)(OC)[C@@H](O)[C@H](C)O2)[C@H](C)[C@@H](O[C@@H]2O[C@H](C)C[C@H](N(C)C)[C@H]2O)[C@](C)(O)C[C@@H](C)CN(C)[C@H](C)[C@@H](O)[C@]1(C)O [Compound 3, 9a-aza-9a-methyl-9-deoxo-9a-homoerythromycin A, reference compound]	96 % DMSO control	122 % DMSO control	75 % Vehicle	100 µM	60 % DMSO control	118 % DMSO control	2.25 µM	5.5 µM			> 100 µM		> 100 µM
CC[C@H]1OC(=O)[C@H](C)C(O)[C@H](C)[C@@H](O[C@@H]2O[C@H](C)C[C@H](N(C)C)[C@H]2O)/C(C)=C/[C@@H](C)CN(C)[C@H](C)[C@@H](O)[C@]1(C)O (some centres unmarked) [Compound 13]	99 % DMSO control	98 % DMSO control	78 % Vehicle	100 µM	47 % DMSO control	193 % DMSO control			1570 µM	2140 µM			
CCC1OC(=O)C(C)C2(O)OC(C)(CC(C)CN(C)C(C)C(=O)C1(C)O)C(OC1OC(C)CC(N(C)C)C1O)C2C (centres unmarked) [Compound 4, 14-(4-Dimethylamino-3-hydroxy-6-methyl-tetrahydro-pyran-2-yloxy)-5-ethyl-1,6-dihydroxy-2,6,8,9,11,13,15-heptamethyl-4,16-dioxa-9-aza-bicyclo[11.2.1]hexadecane-3,7-dione]											> 100 µM		> 100 µM
CC[C@H]1OC(=O)[C@H](C)C(=O)[C@H](C)[C@@H](O[C@@H]2O[C@H](C)CC(N(C)C)[C@H]2OC(C)=O)[C@](C)(O)C[C@@H](C)CN(C)[C@H](C)[C@@H](O)[C@]1(C)O (some centres unmarked) [Compound 8]	85 % DMSO control	134 % DMSO control	81 % Vehicle	100 µM	45 % DMSO control	83 % DMSO control	1970 µM	1270 µM				67 % Vehicle	
CCC1OC(=O)C(C)C(=O)C(C)C(OC2OC(C)CC(NC)C2O)C(C)(O)CC(C)CN(C)C(C)C(O)C1(C)O (centres unmarked) [Compound 11]	86 % DMSO control	96 % DMSO control	80 % Vehicle	100 µM	53 % DMSO control	174 % DMSO control			2340 µM	1090 µM		98 % Vehicle	
